In ChEMBL document CHEMBL2074505, “Imaging reversal of multidrug resistance in living mice with bioluminescence: MDR1 P-glycoprotein transports coelenterazine” (Proc Natl Acad Sci U S A, 2004):

Molecular target: ATP-dependent translocase ABCB1 (Homo sapiens, UniProt P08183)
Experiment: TP_TRANSPORTER: efflux in KB 8-5-11 Rluc cells
Type: functional, cell-based

ATP-dependent translocase ABCB1, sequence (P08183 whole entry): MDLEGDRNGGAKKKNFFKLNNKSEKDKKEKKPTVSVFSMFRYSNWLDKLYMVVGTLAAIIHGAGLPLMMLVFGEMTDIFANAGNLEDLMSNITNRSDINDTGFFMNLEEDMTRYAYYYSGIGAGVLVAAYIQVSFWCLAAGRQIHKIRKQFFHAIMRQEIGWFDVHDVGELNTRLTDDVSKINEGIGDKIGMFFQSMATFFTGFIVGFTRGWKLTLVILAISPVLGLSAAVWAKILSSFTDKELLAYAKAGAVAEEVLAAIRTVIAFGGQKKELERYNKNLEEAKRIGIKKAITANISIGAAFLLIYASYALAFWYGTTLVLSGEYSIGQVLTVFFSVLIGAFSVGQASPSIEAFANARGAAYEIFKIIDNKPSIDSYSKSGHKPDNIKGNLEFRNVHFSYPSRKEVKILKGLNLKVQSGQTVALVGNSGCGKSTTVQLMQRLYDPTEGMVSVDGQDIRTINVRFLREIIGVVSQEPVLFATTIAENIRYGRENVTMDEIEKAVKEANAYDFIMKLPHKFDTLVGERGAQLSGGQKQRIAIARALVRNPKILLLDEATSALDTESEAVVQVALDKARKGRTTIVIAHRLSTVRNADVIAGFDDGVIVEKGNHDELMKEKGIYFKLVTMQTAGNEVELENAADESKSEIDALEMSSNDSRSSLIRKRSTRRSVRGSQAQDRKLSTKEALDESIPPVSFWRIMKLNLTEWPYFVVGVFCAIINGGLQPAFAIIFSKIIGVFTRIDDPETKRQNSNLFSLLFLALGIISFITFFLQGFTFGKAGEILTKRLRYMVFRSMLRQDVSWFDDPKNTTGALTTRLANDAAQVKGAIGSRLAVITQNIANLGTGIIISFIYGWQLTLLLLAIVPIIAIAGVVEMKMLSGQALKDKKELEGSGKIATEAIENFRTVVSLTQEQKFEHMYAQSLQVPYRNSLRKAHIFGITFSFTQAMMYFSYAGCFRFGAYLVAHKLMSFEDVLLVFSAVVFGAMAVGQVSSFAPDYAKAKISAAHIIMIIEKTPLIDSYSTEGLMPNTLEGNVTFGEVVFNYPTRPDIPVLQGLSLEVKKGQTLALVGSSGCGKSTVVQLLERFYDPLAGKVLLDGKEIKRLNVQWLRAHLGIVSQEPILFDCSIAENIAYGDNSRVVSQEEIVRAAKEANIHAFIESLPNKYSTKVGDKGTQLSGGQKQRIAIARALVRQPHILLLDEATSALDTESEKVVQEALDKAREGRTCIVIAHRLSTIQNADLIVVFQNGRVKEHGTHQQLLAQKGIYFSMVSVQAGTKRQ

EC50: 147 nM
SMILES: Oc1ccc(Cc2nc3c(Cc4ccccc4)nc(-c4ccc(O)cc4)cn3c2O)cc1 [COELENTERAZINE]
